From PMC3626250, “Effects of Borneol on Pharmacokinetics and Tissue Distribution of Notoginsenoside R1 and Ginsenosides Rg1 and Re in Panax notoginseng in Rabbits” (Journal of Analytical Methods in Chemistry, 2013)
Read-outs that look alike come from different tables or passages of the source. Marks after values point to notes of the source that are not given here.

What was measured:
[1] = Pharmacokinetics study in rabbits after oral Panax notoginseng extract with or without Borneol (plasma, SPE-HPLC-MS); type: in vivo, New Zealand rabbits; settings: for Cmax / Tmax / CL/F / half-life / AUC(0-inf) / AUC(0-t): New Zealand, rabbit, plasma; for CL/F: read-out: CL/F; for half-life: read-out: t 1/2β; for AUC(0-inf) / AUC(0-t): po
Description: Liquid chromatography was carried out on an Agilent 1100 HPLC system with an auto sampler, a quaternary pump and a vacuum degasser (Waldoboro, Frankfurt, Germany). Operations were controlled by Agilent Chemstation 4.2 software (Littleforts, Philadelphia, USA). Separations were achieved on a reversed-phase HPLC column (Zorbax SB-C18 150 × 2.1 mm, 5.0 μm particle size). A solution of acetonitrile and water (V : V, 20 : 80) with 0.1% (V : V) ammonium formate was used as the mobile phase. The flow rate was set at 0.3 mL·min^−1 and the column temperature was 25°C. Under these conditions, NGR1, GRg1, and GRe in plasma samples were separated efficiently without any interferences.
MS^n detection was performed on an Agilent SL trap MS system (Waldoboro, Frankfurt, Germany). The ion source-dependent (electrospray ionization) conditions were the same for all analyses with a spraying voltage of −4500 V in the negative ion mode. The pressure of the nebulizing gas (nitrogen) was set at 35 p.s.i. The flow rate of the drying gas (nitrogen) was set at 7.0 L·min^−1 with the temperature of 325°C. The collision gas (He) for the MS^n mode at trap was set at flow of 4 (instrument unit). The voltage of the capillary was set at 4000 V, and its end plate offset was −500 V. Scan range was from 500 to 1500 m/z.
(§1) Frozen plasma and tissue samples were thawed in a water bath at 37°C and were then vortexed followed by centrifuging at 5000 r·min^−1 for 5 min. An aliquot of 1.0 mL of the supernatant from each sample was loaded onto C18 Bond Elute Solid phase extraction (SPE) cartridges (1000 mg, 1 cc reservoir, Varian, Harbor City, CA, USA) pretreated with 2.0 mL hexane, isopropanol, methanol, and water, sequentially. The SPE cartridges were then washed with 1.0 mL water, 20% methanol/water solution, 40% methanol/water solution, and 60% methanol/water solution, sequentially. Finally, analytes were eluted twice with 1.0 mL of 70% methanol/water solution. The eluant was evaporated to dryness under nitrogen. The residues were then reconstituted in 1.0 mL mobile phase. An aliquot of 10 μL was injected into the LC-MS system.
Eighteen rabbits were randomly divided into three groups of 6 subjects and were orally given 3.0 mL·kg^−1 normal saline, 3.0 mL·kg^−1 Panax notoginseng extract, and 3.0 mL·kg^−1 Panax notoginseng extract combined with Borneol, respectively. Plasma samples were collected in heparinized tubes from the central ear artery at 0.0, 5.0, 10.0, 20.0, 30.0, 45.0, 60.0, 75.0, 90.0, 120.0, 180.0, 300.0 and 480.0 min after dose. After each sampling, the same volume of 0.9% saline solution was injected from the ear vein to compensate the loss of blood. The plasma obtained was frozen at −70°C for storage and was processed prior to analysis with the proposed method as described in Section 2.6.
Statistical analysis of the biological data was performed using the Student's t-test. The drug analysis system 2.0 (DAS 2.0, T.C.M., Shanghai, China) was used to calculate the pharmacokinetic parameters, such as the area under curve (AUC), the maximum plasma concentration (C max), the time needed to reach the maximum plasma concentration (t max) and the half-life of absorption, and distribution and elimination (t 1/2Ka, t 1/2α, t 1/2β).

[2] = Tissue distribution study in rabbits after oral Panax notoginseng extract with or without Borneol; type: in vivo, New Zealand rabbits; settings: New Zealand, rabbit; for Kp at 1 h: oral, Borneol combined with Panax notoginseng; for concentration at 0.5 h / concentration at 1 h / concentration at 3 h: po; for concentration at 3 h: 3 mL·kg^−1, 3.0 h
Description: as §1
One group of rabbits (n = 18) was orally administered a dose of 3.0 mL·kg^−1 Panax notoginseng extract, while another group of rabbits (n = 18) was orally given 3.0 mL·kg^−1 Panax notoginseng extract combined with Borneol. At 0.5, 1, and 3 h after administration, blood samples were collected from the central ear artery of six rabbits from each group, and the heart, liver, lung, kidney, and brain were immediately removed after animals were sacrificed by decapitation. An accurately weighed amount of tissue (1 g) was collected to be rinsed, dried, minced, and homogenized (400 r·min^−1) in normal saline (1.5 mL). All of the samples were stored at −70°C and were processed prior to analysis with the proposed method as described in Section 2.6.

[3] = oral 3.0 mL·kg^−1 Panax notoginseng extract
[4] = oral 3.0 mL·kg^−1 Panax notoginseng extract combined with Borneol

Cmax [1, 3]: 1920 ± 220 ng/mL
Tmax [1, 3]: 45 min
Cmax [1, 4]: 3040 ± 240 ng/mL
Tmax [1, 4]: 45 min
CL/F [1, 4]: 143 ± 54 mL/min/kg
half-life [1, 4]: 69.3 ± 15.2 min
CL/F [1, 3]: 150 ± 30 mL/min/kg
half-life [1, 3]: 69.3 ± 5.8 min
AUC(0-inf) [1, 3]: 8910 ng·h/mL
AUC(0-t) [1, 3]: 7080 ng·h/mL
AUC(0-inf) [1, 4]: 23300 ng·h/mL
AUC(0-t) [1, 4]: 8750 ng·h/mL
K 10 [1, 3]: 0.007 ± 0.003 min⁻¹
K 12 [1, 3]: 0.012 ± 0.004 min⁻¹
K 21 [1, 3]: 0.011 ± 0.005 min⁻¹
K a [1, 3]: 0.025 ± 0.004 min⁻¹
T lag [1, 3]: 0 ± 0 min
V/F [1, 3]: 20.0 ± 4.7 L/kg
t 1/2Ka [1, 3]: 27.7 ± 3.7 min
t 1/2α [1, 3]: 35.0 ± 1.9 min
α [1, 3]: 0.020 ± 0.004 min⁻¹
β [1, 3]: 0.010 ± 0.002 min⁻¹
K 10 [1, 4]: 0.005 ± 0.001 min⁻¹
K 12 [1, 4]: 0.022 ± 0.005** min^−1
K 21 [1, 4]: 0.011 ± 0.003 min⁻¹
K a [1, 4]: 0.034 ± 0.003** min^−1
T lag [1, 4]: 0.61 ± 0.47 min
V/F [1, 4]: 31.1 ± 6.9 L/kg
t 1/2Ka [1, 4]: 20.3 ± 4.2 min
t 1/2α [1, 4]: 25.2 ± 2.4 min
α [1, 4]: 0.027 ± 0.008 min⁻¹
β [1, 4]: 0.010 ± 0.001 min⁻¹
Kp at 1 h ([2]; brain, peak levels at 1.0 h, read-out: level in brain, fold higher than the plasma concentrations): 1.14
concentration at 0.5 h ([2]; brain, 3 mL·kg^−1, 0.5 h, oral Panax notoginseng with Borneol, read-out: Concentration in brain): 1800 ± 420 ng/g
concentration at 0.5 h ([2]; brain, 3 mL·kg^−1, 0.5 h, oral Panax notoginseng, read-out: Concentration in brain): 1050 ± 420 ng/g
concentration at 1 h ([2]; brain, 3 mL·kg^−1, 1.0 h, oral Panax notoginseng, read-out: Concentration in brain): 1210 ± 280 ng/g
concentration at 3 h ([2]; brain, oral Panax notoginseng with Borneol, read-out: Concentration in brain): 1650 ± 230 ng/g
concentration at 3 h ([2]; brain, oral Panax notoginseng, read-out: Concentration in brain): 630 ± 120 ng/g
concentration at 1 h ([2]; brain, 1.0 h, oral Panax notoginseng with Borneol, read-out: Concentration in brain): 2760 ± 630 ng/g
Kp at 1 h ([2]; heart, peak levels at 1.0 h, read-out: level in heart, fold higher than the plasma concentrations): 1.35
concentration at 0.5 h ([2]; heart, 3 mL·kg^−1, 0.5 h, oral Panax notoginseng with Borneol, read-out: Concentration in heart): 2810 ± 740 ng/g
concentration at 0.5 h ([2]; heart, 3 mL·kg^−1, 0.5 h, oral Panax notoginseng, read-out: Concentration in heart): 1650 ± 530 ng/g
concentration at 1 h ([2]; heart, 3 mL·kg^−1, 1.0 h, oral Panax notoginseng, read-out: Concentration in heart): 2110 ± 280 ng/g
concentration at 3 h ([2]; heart, oral Panax notoginseng with Borneol, read-out: Concentration in heart): 2240 ± 540 ng/g
concentration at 3 h ([2]; heart, oral Panax notoginseng, read-out: Concentration in heart): 1140 ± 130 ng/g
concentration at 1 h ([2]; heart, 1.0 h, oral Panax notoginseng with Borneol, read-out: Concentration in heart): 3280 ± 430 ng/g
Kp at 1 h ([2]; kidney, at 1.0 h, read-out: level in kidney, fold higher than the plasma concentrations): 1
concentration at 0.5 h ([2]; kidney, 3 mL·kg^−1, 0.5 h, oral Panax notoginseng with Borneol, read-out: Concentration in kidney): 2840 ± 530 ng/g
concentration at 0.5 h ([2]; kidney, 3 mL·kg^−1, 0.5 h, oral Panax notoginseng, read-out: Concentration in kidney): 1630 ± 180 ng/g
concentration at 1 h ([2]; kidney, 3 mL·kg^−1, 1.0 h, oral Panax notoginseng, read-out: Concentration in kidney): 1530 ± 220 ng/g
concentration at 3 h ([2]; kidney, oral Panax notoginseng with Borneol, read-out: Concentration in kidney): 1610 ± 450 ng/g
concentration at 3 h ([2]; kidney, oral Panax notoginseng, read-out: Concentration in kidney): 1150 ± 130 ng/g
concentration at 1 h ([2]; kidney, 1.0 h, oral Panax notoginseng with Borneol, read-out: Concentration in kidney): 2430 ± 290 ng/g
Kp at 1 h ([2]; liver, peak levels at 1.0 h, read-out: level in liver, fold higher than the plasma concentrations): 1.97
concentration at 0.5 h ([2]; liver, 3 mL·kg^−1, 0.5 h, oral Panax notoginseng with Borneol, read-out: Concentration in liver): 3600 ± 460 ng/g
concentration at 0.5 h ([2]; liver, 3 mL·kg^−1, 0.5 h, oral Panax notoginseng, read-out: Concentration in liver): 990 ± 330 ng/g
concentration at 1 h ([2]; liver, 3 mL·kg^−1, 1.0 h, oral Panax notoginseng, read-out: Concentration in liver): 1300 ± 250 ng/g
concentration at 3 h ([2]; liver, oral Panax notoginseng with Borneol, read-out: Concentration in liver): 2630 ± 810 ng/g
concentration at 3 h ([2]; liver, oral Panax notoginseng, read-out: Concentration in liver): 690 ± 110 ng/g
concentration at 1 h ([2]; liver, 1.0 h, oral Panax notoginseng with Borneol, read-out: Concentration in liver): 4770 ± 420 ng/g
Kp at 1 h ([2]; lung, peak levels at 1.0 h, read-out: level in lung, fold higher than the plasma concentrations): 1.24
concentration at 0.5 h ([2]; lung, 3 mL·kg^−1, 0.5 h, oral Panax notoginseng with Borneol, read-out: Concentration in lung): 2480 ± 690 ng/g
concentration at 0.5 h ([2]; lung, 3 mL·kg^−1, 0.5 h, oral Panax notoginseng, read-out: Concentration in lung): 700 ± 410 ng/g
concentration at 1 h ([2]; lung, 3 mL·kg^−1, 1.0 h, oral Panax notoginseng, read-out: Concentration in lung): 920 ± 130 ng/g
concentration at 3 h ([2]; lung, oral Panax notoginseng with Borneol, read-out: Concentration in lung): 1530 ± 450 ng/g
concentration at 3 h ([2]; lung, oral Panax notoginseng, read-out: Concentration in lung): 310 ± 440 ng/g
concentration at 1 h ([2]; lung, 1.0 h, oral Panax notoginseng with Borneol, read-out: Concentration in lung): 2990 ± 170 ng/g
concentration at 0.5 h ([2]; plasma, 3 mL·kg^−1, 0.5 h, oral Panax notoginseng, read-out: Concentration in plasma): 1780 ± 110 ng/mL
concentration at 1 h ([2]; plasma, 3 mL·kg^−1, 1.0 h, oral Panax notoginseng, read-out: Concentration in plasma): 1900 ± 150 ng/mL
concentration at 3 h ([2]; plasma, oral Panax notoginseng with Borneol, read-out: Concentration in plasma): 870 ± 40 ng/mL
concentration at 3 h ([2]; plasma, oral Panax notoginseng, read-out: Concentration in plasma): 790 ± 20 ng/mL
concentration at 0.5 h ([2]; plasma, 0.5 h, oral Panax notoginseng with Borneol, read-out: Concentration in plasma): 2680 ± 130 ng/mL
concentration at 1 h ([2]; plasma, 1.0 h, oral Panax notoginseng with Borneol, read-out: Concentration in plasma): 2420 ± 80 ng/mL
SMILES: CC(C)=CCC[C@](C)(O[C@@H]1O[C@H](CO)[C@@H](O)[C@H](O)[C@H]1O)[C@H]1CC[C@]2(C)[C@@H]1[C@H](O)C[C@@H]1[C@@]3(C)CC[C@H](O)C(C)(C)[C@@H]3[C@@H](O[C@@H]3O[C@H](CO)[C@@H](O)[C@H](O)[C@H]3O[C@@H]3O[C@@H](C)[C@H](O)[C@@H](O)[C@H]3O)C[C@]12C [GRe, ginsenoside Re]
